According to ChEMBL document CHEMBL1201862, “PubChem BioAssay data set” (2004):
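Method: 48-hour compound exposure of cells in 96-well plates, five concentrations, linear interpolation of endpoints. The concentration for 50% growth inhibition is given as GI50.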 Calls of active or inactive are those of the source. Rule as the data show it: active = GI50 up to about 1.1 µM and inactive = higher.

Columns and labels:
Assay in all cases: NCI anticancer screen, dose series, 48 h
EKVX = tested on: EKVX
TK-10 = tested on: TK-10
HT-29 = tested on: HT-29
SF-268 = tested on: SF-268
SK-MEL-5 = tested on: SK-MEL-5
A549 = tested on: A549
RXF 393 = tested on: RXF 393
U-251 = tested on: U-251
UO-31 = tested on: UO-31
ACHN = tested on: ACHN
NCI-H460 = tested on: NCI-H460
RPMI-8226 = tested on: RPMI-8226
OVCAR-4 = tested on: OVCAR-4
UACC-62 = tested on: UACC-62
M14 = tested on: M14
HCT-15 = tested on: HCT-15

| Structure (SMILES) | GI50 (EKVX) | GI50 (TK-10) | GI50 (HT-29) | GI50 (SF-268) | GI50 (SK-MEL-5) | GI50 (A549) | GI50 (RXF 393) | GI50 (U-251) | GI50 (UO-31) | GI50 (ACHN) | GI50 (NCI-H460) | GI50 (RPMI-8226) | GI50 (OVCAR-4) | GI50 (UACC-62) | GI50 (M14) | GI50 (HCT-15) [µM] |
| --- | --- | --- | --- | --- | --- | --- | --- | --- | --- | --- | --- | --- | --- | --- | --- | --- |
| CC(c1cccc2ccccc12)/[N+]([O-])=C/c1ccccc1 (centres undefined) | 70.8 µM (inactive) | > 100 µM (inactive) | > 100 µM (inactive) | > 100 µM (inactive) | > 100 µM (inactive) | > 100 µM (inactive) | > 100 µM (inactive) | > 100 µM (inactive) | 39.6 µM (inactive) | > 100 µM (inactive) | > 100 µM (inactive) | 58.3 µM (inactive) | – | – | – | – |
| CCOC(=O)/C(=C/c1ccc(C#N)cc1)N(CC)CC | > 100 µM (inactive) | > 100 µM (inactive) | > 100 µM (inactive) | > 100 µM (inactive) | > 100 µM (inactive) | > 100 µM (inactive) | – | > 100 µM (inactive) | > 100 µM (inactive) | > 100 µM (inactive) | > 100 µM (inactive) | > 100 µM (inactive) | > 100 µM (inactive) | > 100 µM (inactive) | > 100 µM (inactive) | > 100 |
| Clc1ccc(C2SCc3nc4ccccc4n32)cc1Cl (centres undefined) | 14.4 µM (inactive) | 13 µM (inactive) | 15.1 µM (inactive) | 15.9 µM (inactive) | 9.08 µM (inactive) | 13.4 µM (inactive) | 4.2 µM (inactive) | 16 µM (inactive) | – | 13 µM (inactive) | 13.5 µM (inactive) | 11.4 µM (inactive) | 13.1 µM (inactive) | 13.2 µM (inactive) | 13.2 µM (inactive) | 13.3 |
| CC(=O)N1CCC(=O)/C(=C/c2ccccc2)C1 | – | 97.3 µM (inactive) | 20.3 µM (inactive) | 20.5 µM (inactive) | 34 µM (inactive) | 71.9 µM (inactive) | 22.8 µM (inactive) | 17.1 µM (inactive) | > 100 µM (inactive) | 22.1 µM (inactive) | 27.7 µM (inactive) | 42.7 µM (inactive) | 19.3 µM (inactive) | 24.7 µM (inactive) | 33.8 µM (inactive) | 17.1 |
| CCC(C(=O)c1ccccc1)C(CCCC(=O)Nc1c(C)cccc1C)N=O (centres undefined) | > 100 µM (inactive) | > 100 µM (inactive) | > 100 µM (inactive) | > 100 µM (inactive) | > 100 µM (inactive) | > 100 µM (inactive) | – | > 100 µM (inactive) | > 100 µM (inactive) | > 100 µM (inactive) | > 100 µM (inactive) | > 100 µM (inactive) | > 100 µM (inactive) | > 100 µM (inactive) | > 100 µM (inactive) | > 100 |
| COC(=O)[C@@H]1Cc2c([nH]c3ccccc23)[C@H](c2ccccc2)N1 | 44.2 µM (inactive) | 33 µM (inactive) | 49.3 µM (inactive) | 41.7 µM (inactive) | 14.7 µM (inactive) | 38.6 µM (inactive) | – | 47.8 µM (inactive) | 29.6 µM (inactive) | 38.3 µM (inactive) | 34.5 µM (inactive) | – | 43.6 µM (inactive) | 50.2 µM (inactive) | 25.6 µM (inactive) | 19.4 |
| CSc1nnc(CCC(=O)Nc2c(C)cccc2C)o1 | > 100 µM (inactive) | > 100 µM (inactive) | > 100 µM (inactive) | > 100 µM (inactive) | > 100 µM (inactive) | > 100 µM (inactive) | > 100 µM (inactive) | > 100 µM (inactive) | > 100 µM (inactive) | – | > 100 µM (inactive) | > 100 µM (inactive) | > 100 µM (inactive) | > 100 µM (inactive) | > 100 µM (inactive) | 50.8 |
| CC(C)C(=O)/C=C/c1ccccc1 | – | – | 53.5 µM (inactive) | > 100 µM (inactive) | 67.3 µM (inactive) | > 100 µM (inactive) | > 100 µM (inactive) | 61.2 µM (inactive) | > 100 µM (inactive) | 81.5 µM (inactive) | 50.6 µM (inactive) | 37.1 µM (inactive) | > 100 µM (inactive) | 87.3 µM (inactive) | > 100 µM (inactive) | – |
